Assay results as given in patent US7012098B2, “Inhibitors of inducible nitric oxide synthase for chemoprevention and treatment of cancers” (Pharmacia Corporation, priority 2001, dated 2006).
Structures can show the parent of a compound that is named as a salt.

What was measured:
intestinal tumorigenesis = details: APC^Δ716 mice; cited from earlier work
i-NOS = i-NOS (Homo sapiens, UniProt P35228); assay: i-NOS inhibition, comparison with NIL amides; type: biochemical; details: compared with NIL amide or NIL dimethylamide
Chain of i-NOS (P35228 whole entry): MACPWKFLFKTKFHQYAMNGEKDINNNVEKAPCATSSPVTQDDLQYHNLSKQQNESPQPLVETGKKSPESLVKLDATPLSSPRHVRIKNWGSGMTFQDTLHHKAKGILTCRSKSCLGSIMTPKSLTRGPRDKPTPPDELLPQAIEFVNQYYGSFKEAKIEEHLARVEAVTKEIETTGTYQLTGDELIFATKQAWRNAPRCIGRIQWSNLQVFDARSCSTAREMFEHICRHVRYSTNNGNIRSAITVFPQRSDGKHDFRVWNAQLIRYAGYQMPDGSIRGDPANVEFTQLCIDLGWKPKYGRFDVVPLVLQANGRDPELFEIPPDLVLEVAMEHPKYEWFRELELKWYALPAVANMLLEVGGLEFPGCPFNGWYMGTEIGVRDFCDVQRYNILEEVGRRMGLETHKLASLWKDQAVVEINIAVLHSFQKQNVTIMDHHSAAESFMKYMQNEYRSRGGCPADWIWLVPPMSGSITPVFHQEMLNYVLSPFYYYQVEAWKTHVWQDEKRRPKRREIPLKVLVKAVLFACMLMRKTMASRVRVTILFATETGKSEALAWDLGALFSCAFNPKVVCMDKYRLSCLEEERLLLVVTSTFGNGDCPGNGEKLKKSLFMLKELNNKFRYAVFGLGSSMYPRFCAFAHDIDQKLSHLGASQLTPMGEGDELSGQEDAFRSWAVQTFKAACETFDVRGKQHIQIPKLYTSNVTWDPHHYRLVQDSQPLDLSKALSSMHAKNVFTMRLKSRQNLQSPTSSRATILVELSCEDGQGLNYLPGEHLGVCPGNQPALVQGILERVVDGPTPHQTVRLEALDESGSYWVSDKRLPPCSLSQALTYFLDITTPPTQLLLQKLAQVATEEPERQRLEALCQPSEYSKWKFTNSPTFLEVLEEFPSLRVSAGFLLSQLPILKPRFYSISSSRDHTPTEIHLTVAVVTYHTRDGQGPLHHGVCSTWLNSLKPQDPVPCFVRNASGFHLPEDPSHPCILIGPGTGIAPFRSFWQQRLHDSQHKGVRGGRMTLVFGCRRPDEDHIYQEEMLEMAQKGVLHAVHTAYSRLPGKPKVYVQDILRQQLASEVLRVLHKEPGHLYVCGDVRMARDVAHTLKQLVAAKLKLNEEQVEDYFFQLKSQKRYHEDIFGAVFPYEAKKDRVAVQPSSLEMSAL

iNOS = iNOS (Rattus norvegicus, UniProt Q06518); assay: Colonic mucosal iNOS activity after dietary treatment; type: in vivo, male F344 rats
Experimental: (§1) In Vivo Assay of Modulation of Colonic Mucosal Activities of NOS and COX isoforms by iNOS and COX-2 Inhibitors
(§2) NOS and iNOS activities were determined in colonic samples as prepared and described above. Conversion of L-arginine to L-citrulline was measured by a modification of an earlier described method (Rao et al, Carcinogenesis 21, supra; Ambs et al., Cancer Res. 58:334-41, 1998, which is herein incorporated by reference). The assay was carried out by adding 100 μg sample protein to 150 μl of assay buffer [50 mM HEPES, 1 mM DTT, 1 mM MgCl2, 5 mg/L pepstatin A, 0.1 mM PMSF, and 3 mg/L aprotinin, pH 7.4] containing 70 μM arginine, 250,000 dpm L-[^3H]-arginine, 2 mM NADPH, 5μM tetrahydro biopterin, 5 μM flavin adenine dinucleotide, and 0.5 mM CaCi2 to measure total NOS activity, or 1 mM EGTA (without calcium) to determine Ca+^2-independent iNOS activity. After 30 min at 37° C., the reaction was stopped with 100 μl of 1M trichloroacetic acid. Then the samples were adjusted to pH 4.6 by adding 500 μl of 20 mM HEPES and loaded on to Dowex AG 50W-X8 resin columns. L-[^3H]-citrulline was eluted and separated on TLC. Radioactivity was counted by a BioScan Radiomatic detector. Results are expressed as pmol L-[^3H]-citrulline released/mg protein/min.

COX-2 = biological target: T1, COX-2 (Rattus norvegicus, UniProt P35355); assay: Colonic mucosal COX-2 activity after dietary treatment; type: in vivo, male F344 rats; details: 1800 ppm in diet; AOM-treated rats, colonic mucosa; Mean ± SEM
T1 sequence (P35355 18-604): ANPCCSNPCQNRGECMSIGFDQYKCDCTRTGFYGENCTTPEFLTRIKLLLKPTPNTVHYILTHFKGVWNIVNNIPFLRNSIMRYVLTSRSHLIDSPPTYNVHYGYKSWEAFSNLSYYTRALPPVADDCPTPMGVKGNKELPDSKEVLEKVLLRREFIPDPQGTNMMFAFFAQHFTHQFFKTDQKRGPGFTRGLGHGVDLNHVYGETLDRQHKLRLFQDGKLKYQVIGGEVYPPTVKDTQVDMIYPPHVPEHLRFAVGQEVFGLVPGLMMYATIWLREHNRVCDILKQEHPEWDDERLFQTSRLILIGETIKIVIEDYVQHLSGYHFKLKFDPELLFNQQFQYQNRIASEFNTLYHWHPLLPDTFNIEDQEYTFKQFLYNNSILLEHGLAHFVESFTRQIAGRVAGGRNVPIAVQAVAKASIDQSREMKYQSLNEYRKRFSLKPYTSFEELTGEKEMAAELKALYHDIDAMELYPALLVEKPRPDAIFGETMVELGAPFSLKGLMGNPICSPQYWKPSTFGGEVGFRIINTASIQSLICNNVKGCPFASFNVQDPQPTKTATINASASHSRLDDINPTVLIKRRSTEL
Experimental: (§3) For determining COX-2 activity, proteins were preincubated with 50 μM of aspirin to block the activity of COX-1. After incubation at 37° C. for 15 min, the reaction was terminated by adding 40 μl of 0.2 M HCl. The COX-mediated metabolites of arachidonic acid were extracted with ethyl acetate (3×0.5 ml). The combined extracts were evaporated to dryness under N2, redissolved in chloroform, and subjected to thin layer chromatography on precoated TLC plastic plates (silica G 60, 20×20 cm, layer thickness 150 μm). […] The metabolites of ^14C-AA corresponding to PGE2, PGF2α, PGD2, 6-Keto PGF1α, and TXB2 were detected by their comigration (Rf-values) with authentic standards. The area of each metabolite was determined in a Bioscan System 200 image scanning counter (Bioscan Inc., Washington, D.C.) equipped with β-detector.

NOS = assay: Colonic mucosal NOS activity after dietary treatment; type: in vivo, male F344 rats; details: 1800 ppm in diet; AOM-treated rats, colonic mucosa; Mean ± SEM
Experimental: as §1, §2

AOM-induced colonic ACF = assay: Chemopreventive effects in rats with azoxymethane-induced aberrant crypt foci; type: in vivo, male F344 rats
Source text: In Vivo Assay of Chemopreventive Effects of Therapeutic Compounds in Rats with Azoxymethane-induced Aberrant Crypt Foci
Azoxymethane (AOM) (CAS:25843-45-2) was purchased from Ash Stevens (Detroit, Mich.). iNOS and COX-2 selective inhibitors were provided by Pharmacia, (St. Louis, […].). Sulindac, a non-selective inhibitor of COX-isoforms and a known inhibitor of colon carcinogenesis, was supplied by the Chemoprevention Branch of the National Cancer Institute (Bethesda, Md.). Weanling male F344 rats were purchased from Charles River Breeding Laboratories (Kingston, N.Y.). All ingredients of the semipurified diet were obtained from Dyets Inc., (Bethlehem, Pa.) and were stored at 4° C. until the experimental diets were prepared. The rats were held in quarantine for 1 week and had access to modified AIN-76A semipurified control diet (Reddy et al., Cancer Res. 50: 2562-2568, 1990, which is herein incorporated by reference.). They were randomly distributed into various dietary groups and were transferred to an animal holding room where they were housed, three rats to a plastic cage, under controlled conditions of a 12-h light/12-h dark cycle, 50% relative humidity and 21° C. room temperature. Experimental diets were prepared by mixing chemopreventive agents with modified AIN-76A control diet.
To quantify aberrant crypt foci, after a minimum of 24 h in buffered formalin, the colons were cut into 2-cm segments starting at the anus; for the next 5-10 min they were placed in a Petri dish containing 0.2% methylene blue in Krebs Ringer solution. They were then placed, mucosal side up, on a microscope slide and observed through a light microscope. Aberrant crypt foci were recorded according to standard procedures that are being used routinely in our laboratory (Rao et al., Carcinogenesis 21: 617-21, 2000; Rao et al., Cancer Res. 53:4182-88, 1993, which are herein incorporated by reference.). […] The parameters used to assess the aberrant crypts were their occurrence and multiplicity. Crypt multiplicity was determined as the number of crypts in each focus and categorized as containing up to 3, or 4 or more aberrant crypts/focus.

COX-1 = biological target: T2, COX-1 (Rattus norvegicus, UniProt Q63921); assay: Colonic mucosal COX-1 activity after dietary treatment; type: in vivo, male F344 rats; details: 1800 ppm in diet; AOM-treated rats, colonic mucosa; Mean ± SEM
T2 sequence (Q63921 27-602): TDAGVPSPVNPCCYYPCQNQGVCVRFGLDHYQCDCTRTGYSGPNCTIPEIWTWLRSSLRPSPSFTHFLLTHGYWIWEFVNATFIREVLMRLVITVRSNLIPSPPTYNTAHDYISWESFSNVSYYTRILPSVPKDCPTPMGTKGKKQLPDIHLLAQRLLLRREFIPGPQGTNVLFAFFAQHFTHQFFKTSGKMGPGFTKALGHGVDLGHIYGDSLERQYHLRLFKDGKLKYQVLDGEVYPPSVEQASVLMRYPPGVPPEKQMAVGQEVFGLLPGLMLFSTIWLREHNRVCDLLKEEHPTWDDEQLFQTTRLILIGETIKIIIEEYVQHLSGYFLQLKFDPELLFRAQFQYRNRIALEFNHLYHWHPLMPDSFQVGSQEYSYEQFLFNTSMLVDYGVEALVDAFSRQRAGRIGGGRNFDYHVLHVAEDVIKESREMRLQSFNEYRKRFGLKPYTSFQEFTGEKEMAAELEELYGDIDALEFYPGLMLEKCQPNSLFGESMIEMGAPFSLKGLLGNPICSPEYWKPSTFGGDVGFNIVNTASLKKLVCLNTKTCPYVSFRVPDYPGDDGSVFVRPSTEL
Experimental: as §3

[1] = 1800 ppm in diet, AOM-treated male F344 rats, Mean ± SEM

CS(=O)(=O)c1ccc(C2=C(c3ccc(F)c(F)c3)C(=O)OC2)cc1 [MF-Tricyclic]
intestinal tumorigenesis (intestinal tumorigenesis): blocks

CC(=NO)NC/C(F)=C\CC[C@H](N)C(=O)O [Example G, (2S,5E)-2-amino-6-fluoro-7-[(1-hydroximinoethyl)amino]-5-heptenoic acid]
melting point: 198 to 200 °C

CC(=N)NCCCC[C@H](N)C(=O)Nc1nnn[nH]1 [Example NN, 2S-amino-6-[(1-iminoethyl)amino]-N-(1H-tetrazol-5-yl)hexanamide, hydrate, dihydrochloride]
i-NOS inhibitor potency (i-NOS): more potent

N=C(N)NN [aminoguanidine]
suppression of AOM-induced colonic mucosal iNOS activity (iNOS; 1800 ppm): 50% | NOS Activity, iNOS (iNOS; 1800 ppm in diet, AOM-treated rats, colonic mucosa, Mean ± SEM): 1.1 ± 0.1 pmoles [^3H]-citrulline/mg pro | COX-Activity, COX-2 (COX-2): 1.2 ± 0.2 pmoles [^14C]-AA metabolized/m | NOS Activity, NOS (NOS): 7.9 ± 1.7 pmoles [^3H]-citrulline/mg pro | Foci containing 1 Crypt (AOM-induced colonic ACF; [1]): 28.0 ± 2.4 | Foci containing 2 Crypt (AOM-induced colonic ACF; [1]): 29.3 ± 1.3 | Foci containing 3 Crypt (AOM-induced colonic ACF; [1]): 17.8 ± 1.0 | Foci containing ≧4 Crypts (AOM-induced colonic ACF; [1]): 14.6 ± 1.8 | Total ACF incidence (AOM-induced colonic ACF; [1]): 89.8 ± 4.5 | effect on AOM-induced total colonic ACF and multicrypt clusters of 4 or more crypts (AOM-induced colonic ACF; 1,800 ppm, compared to control diet): suppressed | COX-Activity, COX-1 (COX-1): 10.8 ± 1.9 pmoles [^14C]-AA metabolized/m
